The values below come from patent publication US11433052B2, “5-LOX and COX-2 inhibition for treatment in connection with blood-brain barrier dysfunction” (University of Kentucky Research Foundation, priority 2019, dated 2022).

Experiment [1] relates to brain capillaries from pilocarpine-induced status epilepticus (SE) rats. Put plainly: Texas Red leakage from capillary lumens, seizure-mediated capillary leakage in SE rats. Format: in vivo, rat. The settings on record: 10 mg/kg LCF i.p., 7 injections; capillaries isolated 2 d after SE-induction with pilocarpine. The protocol: With reference to FIGS. 2A and 2B, the effect of dual LOX-COX inhibition on seizure-mediated capillary leakage was tested. Rats were treated with 10 mg/kg LCF (i.p., 7 injections). Capillaries were isolated 2 d after status epilepticus (SE)-induction with pilocarpine. Texas Red (TR) leakage from capillary lumens was monitored by confocal microscopy. Mannitol served as a positive control for barrier opening. (Hartz et al., 2012). Data includes mean±SEM (n=10 capillaries); arbitrary units (0-255). B) S100β ELISA (Millipore). Statistics: ***p<0.001 (ANOVA). […] With reference to FIGS. 4A and 4B, the effect of a combination of a LOX inhibitor and a COX inhibitor on seizure-mediated capillary leakage was tested. Rats were treated with zileuton (ZLT) and celecoxib (CEL) (5 mg/kg and 10 mg/kg; i.p., 7 injections). Capillaries were isolated 2 d after SE-induction with pilocarpine. Texas Red (TR) leakage from capillary lumens monitored by confocal microscopy (mannitol: positive control for barrier opening; Hartz et al., 2012). Data: mean±SEM (n=10 capillaries); arbitrary units (0-255).

For the next experiment, the system named is MMP-9. As to the kind of experiment: Western blot of MMP-9 protein expression in capillaries exposed to glutamate. Type of experiment: cell-based. As to conditions: isolated rat brain capillaries, 100 μM glutamate with 100 μM LCF. The protocol: (§1) With reference to FIGS. 1A-1C, the effect of dual LOX-COX inhibition on glutamate-mediated capillary leakage was tested. Isolated rat brain capillaries were exposed to 100 μM glutamate with or without 100 μM of the dual LOX/COX inhibitor, licofelone (LCF). […] FIG. 1A includes Western blots showing MMP-2 and MMP-9 protein expression in isolated rat brain capillaries exposed to 100 μM glutamate with or without LCF. β-Actin was used as protein loading control.
A general note: In western blotting, separated proteins are transferred to a membrane and probed.

The next experiment relates to MMP. As to the kind of experiment: MMP activity in isolated capillaries exposed to glutamate. As to conditions: 100 μM glutamate with 100 μM LCF. Type of experiment: cell-based, rat. The protocol:
With reference to FIGS. 1A-1C, the effect of dual LOX-COX inhibition on glutamate-mediated capillary leakage was tested. Isolated rat brain capillaries were exposed to 100 μM glutamate with or without 100 μM of the dual LOX/COX inhibitor, licofelone (LCF). […] FIG. 1B is a bar graph illustrating MMP activity assessed in isolated capillaries exposed to 100 μM glutamate with or without LCF.

A further experiment concerns MMP-2. As to the kind of experiment: Western blot of MMP-2 protein expression in capillaries exposed to glutamate. Type of experiment: cell-based. The settings on record: isolated rat brain capillaries, 100 μM glutamate with 100 μM LCF. The protocol:
as §1

Experiment [2] has as its system isolated rat brain capillaries. As to the kind of experiment: Texas Red leakage assay, glutamate-mediated capillary leakage. Format: cell-based. The settings on record: 100 μM glutamate with 100 μM LCF. The procedure: With reference to FIGS. 1A-1C, the effect of dual LOX-COX inhibition on glutamate-mediated capillary leakage was tested. Isolated rat brain capillaries were exposed to 100 μM glutamate with or without 100 μM of the dual LOX/COX inhibitor, licofelone (LCF).

In the next experiment the test system is S100β. As to the kind of experiment: Serum S100β ELISA in SE rats. Type of experiment: in vivo, rat. The settings on record: 7 injections, 2 d after SE-induction with pilocarpine. The protocol: With reference to FIGS. 2A and 2B, the effect of dual LOX-COX inhibition on seizure-mediated capillary leakage was tested. Rats were treated with 10 mg/kg LCF (i.p., 7 injections). Capillaries were isolated 2 d after status epilepticus (SE)-induction with pilocarpine. Serum levels of S100β were assessed by ELISA (Millipore). Statistics: ***p<0.001 (ANOVA). Data: mean±SEM. […] The effect of dual LOX-COX inhibition on seizure-mediated capillary leakage was further tested in rates treated with either 5 mg/kg or 10 mg/kg LCF (i.p., 7 injections). Capillaries were isolated 2 d after SE-induction with pilocarpine. Serum levels of S100β were assessed by ELISA (Millipore). […] With reference to FIGS. 4A and 4B, the effect of a combination of a LOX inhibitor and a COX inhibitor on seizure-mediated capillary leakage was tested. Rats were treated with zileuton (ZLT) and celecoxib (CEL) (5 mg/kg and 10 mg/kg; i.p., 7 injections). Capillaries were isolated 2 d after SE-induction with pilocarpine. Serum levels of S100β were assessed by ELISA (Millipore). Statistics: ***p<0.001 (ANOVA). Data: mean±SEM.
(In general: In an ELISA, binding on a coated surface is turned into a signal by an enzyme label.)

On to `CC1(C)Cc2c(-c3ccccc3)c(-c3ccc(Cl)cc3)c(CC(=O)O)n2C1` [licofelone], for which the “capillary leakage in SE rats (Texas Red leakage)” value in experiment [1] is “prevents capillary leakage”. In addition, in the experiment with MMP-9, the “MMP-9 protein levels (Western blot)” value was “did not show increased protein levels”. Also, the MMP activity entry in the experiment on MMP is “did not show increased activity”. Besides, the “MMP-2 protein levels (Western blot)” value in the experiment with MMP-2 is on record as “did not show increased protein levels”. Also, the “glutamate-mediated capillary leakage (Texas Red leakage)” value in experiment [2] is “reduced glutamate-mediated capillary leakage”; in experiment [2] (listed as LCF) it was “glutamate-mediated barrier leakage reduction”. The “capillary leakage as reflected by S100β levels in serum from SE rats, dose dependence” value in the experiment on S100β (5 mg/kg or 10 mg/kg LCF i.p.) was “inhibit capillary leakage in a dose-dependent manner”. Besides, the “S100β levels in serum from SE rats” value in the experiment with S100β (10 mg/kg LCF i.p.) is listed as “reduces S100β levels”.
